Values quoted from earlier work in US8778914B2, “Bisphosphonate-prodrugs” (priority 2009, dated 2014).
Numbered stars: 1 amine (or outer) side, 2 acyl side, 3 side chain; on linkers, the order of the positions; unused ones are H or OH. Square brackets hold non-standard residues; d marks the D form. Side chains are listed from the residue outwards. Peptide text beside a SMILES is read from it. * marks the point of attachment. DAMPA = CN(Cc1cnc2nc(N)nc(N)c2n1)c1ccc(C(=O)*)cc1; Hexanoyl(6-maleimido) = O=C1C=CC(=O)N1CCCCCC(=O)*; γGlu = O=C(O)[C@H](CCC(=O)[*:2])N[*:1]

Key:
Cathepsin B = Cathepsin B (Homo sapiens, UniProt P07858); conditions: releases (gamma-MTX); reported in A. Warnecke et al., Arch. Pharm. 2007
plasmin = plasmin (Homo sapiens, UniProt P00747); conditions: releases (gamma-MTX); reported in A. Warnecke et al., Arch. Pharm. 2007
[1] = pH 5.0; F. Kratz et al., J. Med. Chem. 2002

Chain of plasmin (P00747 581-810 limits assumed, species assumed): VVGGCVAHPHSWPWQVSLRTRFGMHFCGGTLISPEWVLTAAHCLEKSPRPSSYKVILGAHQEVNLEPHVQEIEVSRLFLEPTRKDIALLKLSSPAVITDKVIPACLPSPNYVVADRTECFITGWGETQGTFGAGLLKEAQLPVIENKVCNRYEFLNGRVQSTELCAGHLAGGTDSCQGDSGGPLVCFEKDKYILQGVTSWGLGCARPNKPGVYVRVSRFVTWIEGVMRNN
Chain of plasmin (P00747 97-580 partner limits assumed, species assumed): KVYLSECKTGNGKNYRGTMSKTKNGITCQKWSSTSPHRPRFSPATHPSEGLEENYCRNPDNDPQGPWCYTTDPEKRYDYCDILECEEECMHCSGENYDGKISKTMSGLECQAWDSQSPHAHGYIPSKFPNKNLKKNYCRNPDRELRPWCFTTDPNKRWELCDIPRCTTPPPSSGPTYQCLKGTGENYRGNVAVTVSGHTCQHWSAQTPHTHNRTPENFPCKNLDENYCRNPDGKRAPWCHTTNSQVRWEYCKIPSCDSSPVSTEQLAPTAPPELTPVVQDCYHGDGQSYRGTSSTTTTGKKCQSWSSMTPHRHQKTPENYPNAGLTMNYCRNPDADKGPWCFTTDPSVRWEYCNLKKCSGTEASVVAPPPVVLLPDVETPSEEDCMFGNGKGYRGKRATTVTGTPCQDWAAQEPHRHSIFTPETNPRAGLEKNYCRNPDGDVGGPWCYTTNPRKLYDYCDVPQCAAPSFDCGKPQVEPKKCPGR

SMILES	cleavage by Cathepsin B (Cathepsin B)	cleavage by plasmin (plasmin)	acid-sensitive cleavage, release of doxorubicin [1]
C[C@@H](NC(=O)CCCCCN1C(=O)C=CC1=O)C(=O)N[C@@H](Cc1ccccc1)C(=O)N[C@@H](CCCCN)C(=O)N[C@@H](CCCCNC(=O)CC[C@H](NC(=O)c1ccc(N(C)Cc2cnc3nc(N)nc(N)c3n2)cc1)C(=O)O)C(=O)O [EMC-D-Ala-Phe-Lys-Lys-(gamma-MTX)-OH] ({Hexanoyl(6-maleimido)}-[dA]FKK([γGlu-DAMPA])-OH)	cleaved between Lys-Lys	cleaved between Lys-Lys	–
COc1cccc2c1C(=O)c1c(O)c3c(c(O)c1C2=O)C[C@@](O)(/C(CO)=N/NC(=O)CCCCCN1C(=O)C=CC1=O)C[C@@H]3O[C@H]1C[C@H](N)[C@H](O)[C@H](C)O1 [DOXO-EMCH, 6-maleimidocaproylhydazone derivative of doxorubicin]	–	–	cleavable
